According to patent publication US20230212159A1, “Process for the Production of Ferroportin Inhibitors” (Vifor (International) AG, priority 2020, published 2023):
Where two headings read alike, the source gives them in different places.

Target: T1, ferroportin (Fpn) (Mus musculus, UniProt Q9JHI9)
T1 construct: endogenous in cells; host or cells: J774 mouse macrophage cell line
T1 sequence (Q9JHI9 1-570): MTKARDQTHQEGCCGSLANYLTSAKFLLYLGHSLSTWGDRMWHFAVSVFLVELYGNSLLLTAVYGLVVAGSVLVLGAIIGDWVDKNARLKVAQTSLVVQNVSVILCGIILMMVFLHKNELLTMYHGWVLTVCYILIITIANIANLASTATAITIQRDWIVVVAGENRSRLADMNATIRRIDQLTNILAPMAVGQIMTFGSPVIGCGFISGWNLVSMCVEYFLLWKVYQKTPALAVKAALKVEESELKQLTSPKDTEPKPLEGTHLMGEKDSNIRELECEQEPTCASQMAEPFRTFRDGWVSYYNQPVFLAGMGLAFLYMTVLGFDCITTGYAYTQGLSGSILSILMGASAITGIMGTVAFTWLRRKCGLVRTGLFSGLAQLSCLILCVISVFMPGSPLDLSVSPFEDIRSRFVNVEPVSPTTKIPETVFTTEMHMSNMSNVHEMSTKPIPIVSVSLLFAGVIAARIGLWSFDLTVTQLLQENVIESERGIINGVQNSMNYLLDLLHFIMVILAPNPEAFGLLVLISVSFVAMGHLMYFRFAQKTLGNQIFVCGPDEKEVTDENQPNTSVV
Experiment: Hepcidin internalization assay (J774)
Format: cell-based
Description: This cellular assay allows quantification of the binding of hepcidin to ferroportin (Fpn) through microscopic detection of internalization of a fluorescently labeled hepcidin into J774 cells. […] Binding of hepcidin to Fpn triggers internalization and degradation of both hepcidin and Fpn. However, the TMR (6-carboxytetramethylrhodamine) fluorophore attached to hepcidin remains associated with the cell after degradation of the hepcidin peptide backbone. Therefore, microscopic detection of cell-associated TMR fluorescence is a measure of hepcidin binding to Fpn and internalization of hepcidin and Fpn. If TMR-hepcidin is prevented from binding to Fpn, cellular TMR fluorescence remains low (Dürrenberger et al, 2013). The effect of small molecular weight Fpn inhibitor compounds in this assay was evaluated in vitro as described below.
J774 cells, harvested from ca. 80% confluent cultures, were plated at 8x10^5 cells/ml in complete medium (DMEM, 10% FBS, 1% Penicillin-Streptomycin) containing 200 µM Fe(III)NTA (nitrilotriacetic acid), 100 µl per well of 96 well MicroClear plates (Greiner; Cat. 655090) and grown at 37° C. with 5% CO2. After overnight incubation, cells were washed 3 times with prewarmed DMEM w/o phenol red, 30 µl/well of DMEM w/o phenol red was added after the final wash and 10 µl/well of dilution series of test compounds were added in triplicates. J774 cells were pre-incubated with test compounds at 37° C. with 5% CO2 for 15 min. before TMR-hepcidin was added at 25 nM final concentration. Cells were incubated in a total volume of 50 µl at 37° C. with 5% CO2 for 2 hours, then Hoechst 33342 dye was added to a final concentration of 0.5 µg/ml to stain nuclei and further incubated for 10 min. at 37° C. with 5% CO2. Cells were washed 3 times with PBS and fixed in 100 µl of 4% paraformaldehyde in PBS for 15 min. at room temperature. After removal of the paraformaldehyde solution, cells were washed 3 times with PBS leaving 100 µl per well and the plates were sealed with foil plate seal. TMR (530-550 nm excitation / 575-625 nm emission / 400 ms exposure time) and Hoechst 33342 (360-370 nm excitation / 420-460 nm emission / 10 ms exposure time) fluorescence images were acquired using a ScanR plate imager (Olympus) with a 20x high NA objective. Four pictures were acquired per well and fluorescence channel covering ca. 1500 cells per well. The acquired image data was analysed with the ScanR image analysis software. Image analysis included detection of nuclei (Hoechst 33342 fluorescence), identification of cell-associated regions, application of a virtual channel and thresholding for rolling-ball-type background reduction, followed by application of the Sum(Mean) algorithm to measure the TMR fluorescence associated with cells as a quantitative measure for internalized TMR- hepcidin. IC50 values were calculated with the Sum(Mean) raw data using “log(inhibitor) vs. response” curve fitting of Prism 5 software (GraphPad Software Inc., version 5.02). For each data set the fit of the “log(inhibitor) vs. response (three parameters)″ model was compared to the fit of the “log(inhibitor) vs. response - Variable slope (four parameters)″ model and the IC50 data of the preferred model was used. IC50 data of the Compounds according to formula (II) and (II′), that were tested in the hepcidin internalization assay are shown in Table 1.

[1] = J774 cells, (II) and (II′) tested as 3HCl-salts, n=2, read-out: Hepcidin internalization (J774) IC50
[2] = average of multiple measurements, hepcidin internalization assay, 3HCl-salts, read-out: J774 IC50

Structure (SMILES): O=C(NCc1ncccc1Br)c1coc(CCNCCc2nc3ccccc3[nH]2)n1 [Compound (II′)]
- IC50 [1]: 5.9 nM
- IC50 [2]: 6 nM

Structure (SMILES): CC[C@H](C)[C@@H]1NC(=O)[C@@H](NC(=O)[C@@H](NC(=O)[C@@H]2CCCN2C(=O)[C@H](Cc2ccccc2)NC(=O)[C@H](Cc2c[nH]cn2)NC(=O)[C@@H](NC(=O)[C@@H](N)CC(=O)O)[C@@H](C)O)[C@@H](C)CC)CSSC[C@@H](C(=O)N[C@@H](CCCCN)C(=O)N[C@H](C(=O)O)[C@@H](C)O)NC(=O)[C@@H]2CSSC[C@@H]3NC(=O)[C@@H]4CSSC[C@H](NC(=O)[C@H](Cc5ccccc5)NC1=O)C(=O)N[C@@H](CSSC[C@H](NC(=O)[C@H](CCCCN)NC(=O)[C@H](CO)NC(=O)[C@H](CCCNC(=N)N)NC(=O)[C@H](Cc1c[nH]cn1)NC3=O)C(=O)NCC(=O)N[C@@H](CCSC)C(=O)N2)C(=O)NCC(=O)N4 [hepcidin, reference compound]
- IC50 [1]: 10.7 nM

Structure (SMILES): O=C(NCc1ncccc1F)c1coc(CCNCCc2nc3ccccc3[nH]2)n1 [Compound (II)]
- IC50 [1]: 7.3 nM
- IC50 [2]: 7 nM
